Literature values in US20100260718A1, “IRF-4 AS A TUMOR SUPPRESSOR AND USES THEREOF” (Brandels University, priority 2007, published 2010).

Experiments:
IRF-4 = conditions: patients with CML, downregulated before treatment
[1] = system: primitive CML progenitors

IFN-α
IRF-4 expression (IRF-4): restored
toxicity to the more primitive CML progenitors, relative to imatinib [1]: higher toxicity
